Experiments:
Mouse 3T3-L1 fibroblasts = test: Glucose uptake of confluent 3T3-L1 fibroblasts (glucose concentration in medium); type: cell-based; conditions: for glucose uptake-promoting activity: 3T3-L1 cells, same condition as Example 1, FIG. 3, n=3
Description: (1) Mouse 3T3-L1 fibroblasts were cultured in 1 ml of a suitable medium (contained in a 12-well plastic dish) for several days until the cells reached confluence. Then, the cells were cultured for 10-12 hours in the nutrition medium (None), the nutrition medium to which only 0.2% ethanol, a solvent of DIF-1, was added (EtOH), and the nutrition medium to which 10 or 20 µM DIF-1 dissolved in ethanol was added, respectively, and then, glucose concentration in each of the media was determined, based on which glucose uptake rate of the cells was calculated and the ratio with respect to the control was plotted (FIG. 1). […] The data of FIG. 1 are shown by mean value and standard deviation (Bars) of four independent experiments (n=4). (2) Then, mouse 3T3L1 fibroblasts were cultured in 1 ml of a suitable medium (contained in a 12-well plastic dish) until the cells reached confluence. After changing the medium to a new medium (this time point corresponds to 0 hour in the graph), DIF-1 was added, and glucose concentration in the medium was measured at the time point of 20 hours (FIG. 2A), based on which glucose consumption rate was calculated (FIG. 2B). Then, the media were changed to new media containing no DIF-1 for all the samples, and after culture was continued for another 20 hours, glucose concentration was measured (FIG. 2A). The number of cells at this time point was also determined (FIG. 2C). The data of the graph are mean values and standard deviations (Bars) (n=3) of the results of triplicate samples evaluated under the same conditions.
Glucose uptake-promoting activity of DIF-1 and its artificial derivatives (2-MIDIF1, DMPH, THPH) were compared in the same condition as Example 1 (FIG. 3). The data of the graph are mean values and standard deviations (Bars) (n=3) of three independent experiments.
Glucose uptake-promoting activity of DIF-1 derivative compounds in 3T3-L1 cells was evaluated in the same manner as described above. The data of the graph are mean values and standard deviations (Bars) (n=3) of triplicate samples measured under the same conditions.

KKAy diabetic model mice = type: in vivo; conditions: for blood glucose level as compared with the control group: KKAy mice, intraperitoneal 25, 50 and 100 mg/kg, 4 and 8 hours after administration, n=2, FIG. 6; for death of mice: mouse, in vivo
Description: The in vivo effects of DIF-1 and DIF-1 (3M) were also evaluated with the KKAy diabetic model mice. The drugs were administered intraperitoneally to KKAy mice (male, 13 weeks: Clea Japan) at the concentrations of 25, 50, and 100 mg/kg, respectively, and after free feeding (Time 0), blood glucose level was monitored at the indicated time points (FIG. 6). Each of the experiments used two mice, and the mean values of the relative blood glucose concentrations and ½ variance (Bars)(n=2) were plotted.

ICR mice = test: Blood glucose level in ICR mice after intraperitoneal glucose; type: in vivo, mouse; conditions: glucose 0.3 g/kg i.p. together with DIF-1, 50 mg/kg group and 100 mg/kg group, FIG. 7
Description: Glucose (0.3 g/kg) was administered intraperitoneally to ICR mice (male, 6-7 weeks) together with DIF-1 (solvent: 5% DMSO, 5% CREMOPHOR, and 90% distilled water), and blood glucose level was determined from just after the administration. Mice to which only glucose was administered was used as a control group, and mice to which neither glucose nor DIF-1 was administered was used as a normal group.

3T3-L1 adipocytes = test: 2-deoxy glucose uptake in 3T3-L1 adipocytes, with or without insulin; type: cell-based, mouse
Description: Confluent 3T3-L1 fibroblasts (cultured in a 12-well plate) were treated with IBMX (3-isobutyl-1-methylxanhine), dexamethasone, and insulin to induce differentiation into 3T3-L1 adipocytes (Student A K, Hsu R Y & Lane M D (1980) J. Biol. Chem. 255, 4745-4750.). The 3T3-L1 adipocytes were cultured in the presence of DIF-1 whose concentration is shown in FIG. 5 for four hours, and 2-deoxy glucose uptake was measured. At the same time, some of the adipocytes were stimulated with 100 nM insulin during cultivation (after 3.5 hours) in the presence of DIF-1, and cultured for another 30 minutes, and glucose uptake of the cells was measured. Each experiment was performed in triplicates, and the mean values thereof were calculated in each experiment. Such experiments were performed twice and the mean values and ½ variance (Bars) of the two experiments (n=2) were plotted in FIG. 5.

[1] = tested on: RGM-1 cells (isolated from rat gastric mucosa); test: Glucose uptake of RGM-1 cells (glucose concentration in medium); type: cell-based
Description: Similar experiments were performed with RGM-1 cells (isolated from rat gastric mucosa) to evaluate the change in glucose concentration in the medium containing DIF-1 or other compounds (FIG. 4). The data of the graph are mean values and standard deviations (Bars) (n=3) of triplicate samples measured under the same conditions.

COCc1nc2c([nH]1)c(=O)n(C)c(=O)n2CC(C)C [8-MIBMX, reference compound]
glucose uptake-promoting activity (Mouse 3T3-L1 fibroblasts): did not promote glucose uptake

CNc1ccc2oc(C[C@H]3O[C@@]4(CC[C@H]3C)O[C@H]([C@H](C)C(=O)c3ccc[nH]3)[C@H](C)C[C@H]4C)nc2c1C(=O)O [A23187, reference compound]
glucose uptake-promoting activity (Mouse 3T3-L1 fibroblasts): did not promote glucose uptake

COc1c(Cl)c(O)c(C(=O)CC(C)(C)C)c(O)c1Cl [DIF-1 (3M)]
blood glucose level as compared with the control group (KKAy diabetic model mice): low blood glucose level | death of mice (KKAy diabetic model mice): No mice died

CCCCCC(=O)c1c(O)c(Cl)c(OC)c(Cl)c1O [DIF-1]
blood glucose level as compared with the control group (KKAy diabetic model mice): low blood glucose level | death of mice (KKAy diabetic model mice): No mice died | blood glucose level as compared with the control group (ICR mice): significantly lowered blood glucose level | 2-deoxy glucose uptake (3T3-L1 adipocytes; DIF-1 singly, four hours, FIG. 5, n=2): promoted glucose uptake in a concentration-dependent manner | 2-deoxy glucose uptake with insulin (3T3-L1 adipocytes; relatively low concentration of DIF-1 plus 100 nM insulin for the last 30 minutes, FIG. 5): additive effect with insulin | glucose uptake ([1]; 6- and 12-hour culture, FIG. 4): promotes glucose uptake in a concentration-dependent manner | cell number ([1]; after 12-hour culture, FIG. 4C): without influencing cell number | cell morphology and cell damage by microscopic observation (Mouse 3T3-L1 fibroblasts; 3T3-L1 fibroblasts in the presence of DIF-1): cell damage was not observed | glucose uptake ratio of the cell (ratio with respect to the control) (Mouse 3T3-L1 fibroblasts; 3T3-L1 fibroblasts, 10-12 hours culture, 10 or 20 µM DIF-1, FIG. 1, n=4): increased dependently on DIF-1 concentration | glucose uptake of cells (glucose consumption rate) (Mouse 3T3-L1 fibroblasts; 3T3-L1 fibroblasts, 20-hour culture with DIF-1, FIG. 2A/2B, n=3): promotes glucose uptake of cells in a concentration-dependent manner | number of cells (Mouse 3T3-L1 fibroblasts; 3T3-L1 fibroblasts, after 40-hour culture, FIG. 2C): without influencing the number of cells | reversibility of the action on glucose uptake (Mouse 3T3-L1 fibroblasts; 3T3-L1 fibroblasts, medium changed to DIF-1-free medium, another 20 hours, FIG. 2A): reversible

C/C=C(/C)C(=O)O[C@H]1C(C)=C2[C@H]([C@@H]1OC(=O)CCCCCCC)[C@@](C)(OC(C)=O)C[C@H](OC(=O)CCC)[C@@]1(O)[C@H]2OC(=O)[C@@]1(C)O [Tg, Thapsigargin, reference compound]
glucose uptake-promoting activity (Mouse 3T3-L1 fibroblasts): did not promote glucose uptake

Source: US20090111893A1, “METHOD OF LOWERING BLOOD GLUCOSE AND METHOD OF PREVENTING OR TREATING BLOOD GLUCOSE AND METHOD OF PREVENTING OR TREATING DIABETES AND OBESITY” (National University Corporation Gunma University, priority 2007, published 2009)
